From the supplement of paper PMC13380429

What was measured:
Conditions in all cases: 72 h
[1] = system: Calu-3; assay: relative viability EC50 (midpoint between 100% and the lowest measured viability); higher = less toxic
[2] = system: Vero E6; assay: as above
[3] = system: U2OS; assay: as above
[4] = system: HepG2; assay: as above
[5] = system: Caco-2; assay: as above
[6] = system: Calu-3; assay: drug sensitivity score (DSS) for viability; higher = more toxic; extreme values may be limits of the assay
[7] = system: Vero E6; assay: as above
[8] = system: U2OS; assay: as above
[9] = system: HepG2; assay: as above
[10] = system: Caco-2; assay: as above
[11] = system: Calu-3; assay: cell viability relative to DMSO; higher = less toxic
[12] = system: Vero E6; assay: as above
[13] = system: U2OS; assay: as above
[14] = system: HepG2; assay: as above
[15] = system: Caco-2; assay: as above

Compound	relative viability EC50 [1]	relative viability EC50 [2]	relative viability EC50 [3]	relative viability EC50 [4]	relative viability EC50 [5]	drug sensitivity score [6]	drug sensitivity score [7]	drug sensitivity score [8]	drug sensitivity score [9]	drug sensitivity score [10]	cell viability ([11]; 1 nM)	cell viability ([11]; 10 nM)	cell viability ([11]; 100 nM)	cell viability ([11]; 1000 nM)	cell viability ([11]; 10000 nM)	cell viability ([12]; 1 nM)	cell viability ([12]; 10 nM)	cell viability ([12]; 100 nM)	cell viability ([12]; 1000 nM)	cell viability ([12]; 10000 nM)	cell viability ([13]; 1 nM)	cell viability ([13]; 10 nM)	cell viability ([13]; 100 nM)	cell viability ([13]; 1000 nM)	cell viability ([13]; 10000 nM)	cell viability ([14]; 1 nM)	cell viability ([14]; 10 nM)	cell viability ([14]; 100 nM)	cell viability ([14]; 1000 nM)	cell viability ([14]; 10000 nM)	cell viability ([15]; 1 nM)	cell viability ([15]; 10 nM)	cell viability ([15]; 100 nM)	cell viability ([15]; 1000 nM)	cell viability ([15]; 10000 nM)
CN(CCOc1ccc(CC2SC(=O)NC2=O)cc1)c1ccccn1 (stereo not given) [rosiglitazone]	> 10 µM	> 10 µM	> 10 µM	> 10 µM	> 10 µM	0	2.8	0	0	0.9	105%	96.2%	94.6%	102%	108%	96.3%	95.2%	88.3%	82.1%	81.3%	96.7%	97.2%	98.1%	98.5%	100%	94.9%	97.1%	93.5%	96.5%	89.5%	99.9%	93%	93.9%	81.9%	90.7%
CN1[C@@H]2C[C@@H](O)C[C@H]1[C@@H]1O[C@@H]12 [scopine]	> 10 µM	> 10 µM	> 10 µM	> 10 µM	> 10 µM	0	0	0	0	0	102%	90.1%	98.8%	103%	103%	104%	108%	106%	106%	98.8%	98.4%	93.4%	96.1%	96%	102%	97.2%	99.7%	96.7%	99.8%	97%	104%	93%	96.1%	98.3%	105%
CCOC(=O)COc1ccc2c(=O)cc(-c3ccccc3)oc2c1 [efloxate]	> 10 µM	> 10 µM	> 10 µM	> 10 µM	> 10 µM	3	0	0	0	0	105%	98.9%	85.8%	83.5%	99.1%	97%	100%	91.9%	101%	106%	95.4%	95.5%	98.7%	96.7%	99.2%	97.9%	100%	98.3%	99.2%	99.3%	93%	88.6%	101%	101%	96.1%
CC(C)[C@H](CO)Nc1nc(Nc2cccc(Cl)c2)c2ncn(C(C)C)c2n1 [purvalanol-A]	> 10 µM	> 10 µM	> 10 µM	> 10 µM	> 10 µM	0	1.4	0.2	0.4	0.4	102%	109%	96.5%	102%	91.4%	100%	97.4%	93.7%	95.5%	77.3%	97.4%	105%	95.5%	99%	86.4%	90.8%	96.8%	100%	94.8%	87.2%	91.6%	103%	93.4%	94.2%	83.1%
CN(C/C=C/C#CC(C)(C)C)Cc1cccc2ccccc12 [terbinafine]	> 10 µM	> 10 µM	> 10 µM	> 10 µM	> 10 µM	0	0	0	0	0	103%	102%	106%	92.9%	114%	104%	94.2%	109%	94.5%	95.6%	103%	98.9%	95.3%	99.5%	102%	99.4%	91.9%	101%	99.6%	89%	93%	81.1%	90.5%	112%	88.5%
Oc1ccc2ccccc2c1 [beta-naphthol]	> 10 µM	> 10 µM	> 10 µM	> 10 µM	> 10 µM	0	0	0	0	0.6	114%	98.4%	104%	114%	116%	94.4%	99.5%	98.7%	104%	90.7%	102%	99.6%	104%	97.2%	104%	94%	90.7%	102%	89.1%	99.4%	102%	90.3%	99.1%	89.8%	83.2%
COc1ccc(-c2coc3cc(O)ccc3c2=O)cc1 [formononetin]	> 10 µM	> 10 µM	> 10 µM	> 10 µM	> 10 µM	0	0	0	0	0	103%	94.5%	102%	89.8%	93.7%	102%	101%	99.9%	105%	102%	102%	98%	99.9%	102%	103%	102%	106%	97.8%	104%	96.7%	101%	101%	100%	95.6%	94.2%
C[n+]1cc2c3c(ccc2c2ccc4cc5c(cc4c21)OCO5)OCO3 [sanguinarium-chloride]	2.42 µM	1.58 µM	2.52 µM	1.29 µM	1.82 µM	6.9	9.2	6.8	10.3	8.3	101%	96.4%	83.9%	91.1%	0.9%	109%	99.8%	105%	75.9%	0.1%	96.6%	98.5%	97%	92.1%	0.2%	93%	103%	96.7%	64.3%	0%	85.8%	103%	73.1%	82.4%	2.2%
